In patent US20090093541A1, “MELANIN ELIMINATOR PREPARATION” (OGA RESEARCH, INC, priority 2002, published 2009):

Key:
[1] = tested on: blotches and lentigines; experiment: Lotion applied to blotches and lentigines (general description); assay type: in vivo, human; conditions: lotion containing 0.5 (w/w)%; applied one or two times daily; about one month
Text: The effect was also noted on blotches formed on the acne scars, showing clear difference compared with the pre-treatment conditions.

[2] = tested on: lentigo (1-mm diameter) on the arm; experiment: Test Example 5: topical application to a lentigo on the arm; assay type: in vivo, human; conditions: topically applied twice daily, preparation according to Preparation Example 1, two months later
Protocol: To a lentigo (1-mm diameter) on the arm was topically applied twice daily a preparation that was prepared according to Preparation Example 1 except that N-(6,8-dimercaptooctanoyl)histidine sodium/zinc chelate of Example 2 was used instead of N-(6,8-dimercaptooctanoyl)anthranilic acid sodium/zinc chelate of Example 2.

Substance	melanin eliminating effect on blotches and lentigines (fading from black to pale umber or falling off as a scab) [1]	elimination of black color of lentigo [2]
N-(6,8-dimercaptooctanoyl)-3-aminopropionic acid sodium/zinc chelate compound [Example 10]	satisfactory effects	–
N-(6,8-dimercaptooctanoyl)anthranilic acid sodium/zinc chelate compound [Reference Example 8]	satisfactory effects	–
N-(6,8-dimercaptooctanoyl)histidine sodium/zinc chelate compound [Example 2]	–	the black color was found eliminated leaving a subtle scar behind
